The text below walks through data of patent US20250074910A1, “MENIN INHIBITOR AND USE THEREOF” (HITGEN INC., priority 2021, published 2025).

The IC50 is the midpoint of a concentration-inhibition curve. Usually GI50 stands for the concentration giving 50% growth inhibition. Low readings indicate greater sensitivity of the cells, high ones lower sensitivity of the cells.

In data set [1] the target is Menin/MLL-4-43 peptide interaction (Homo sapiens (Human), UniProt O00255). Kind of data set: Menin-MLL interaction inhibitory activity assay (fluorescence polarization competition). The note with it: FITC-MLL4-43-peptide, Menin recombinant protein. The format is binding. In outline:
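Menin (8 nM solution) was preincubated 15 min with compound, then FITC-MLL4-43 peptide (10 nM solution) was added and shaken for 60 min at 25 °C. The buffer was 50 mM Tris pH 7.5, 50 mM NaCl, 1 mM DTT. IC50 was derived from fluorescence polarization read at 485/520 nm.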
On the technique in general: Polarisation of emitted light reports the rotation of a fluorescent probe.

Another data set concerns MV4-11. Put plainly: Cell proliferation inhibition (CellTiter-Glo), MV4-11. The data set is classed as cell-based. The note with it: Homo sapiens, MV4-11, 72 h, MV4-11 cells. In outline: (§1)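 Seed 5,000-20,000 cells/well; add compound to final 1 nM-10 μM; culture 72-168 h at 37° C, 5% CO2; add equal volume CellTiter-Glo, 10 min RT; read luminescence; fit IC50.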
The test system of another data set is MOLM-13. Put plainly: Cell proliferation inhibition (CellTiter-Glo), MOLM-13. The data set is classed as cell-based. The note with it: Homo sapiens, MOLM-13, 168 h, MOLM-13 cells. An outline of the steps: as §1
Data set [2] is described as follows: Stability in mouse liver microsomes. The format is in vitro ADME. The note with it: liver microsomes, pH 7.4, 0.5 mg/mL microsomal protein, 1.00 μM compound, NADPH, read-out: Half life T1/2, mouse liver microsomes. In outline: (§2)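 Compound at 1.00 μM incubated at 37° C with 0.5 mg/mL liver microsomal protein and 2.00 mM NADPH in 100 mM phosphate buffer pH 7.4, sampled 0–60 min with acetonitrile quench. Parent remaining by LC-MS/MS; T½ from ln-remaining slope, CLint scaled by microsomal concentration and conversion factor.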

The nature of data set [3]: Stability in human liver microsomes. The format is in vitro ADME. The note with it: human, liver microsomes, pH 7.4, Human; 0.5 mg/mL microsomal protein, 1.00 μM compound, NADPH; read-out: Half life T1/2, human liver microsomes. An outline of the steps: as §2
The nature of data set [4]: Stability in dog liver microsomes. The note with it: dog, liver microsomes, pH 7.4, Dog; 0.5 mg/mL microsomal protein, 1.00 μM compound, NADPH; read-out: Half life T1/2, dog liver microsomes. The data set is classed as in vitro ADME. In outline: as §2

Structures are written as SMILES.

Chain of Menin/MLL-4-43 peptide interaction (O00255 whole entry, species assumed): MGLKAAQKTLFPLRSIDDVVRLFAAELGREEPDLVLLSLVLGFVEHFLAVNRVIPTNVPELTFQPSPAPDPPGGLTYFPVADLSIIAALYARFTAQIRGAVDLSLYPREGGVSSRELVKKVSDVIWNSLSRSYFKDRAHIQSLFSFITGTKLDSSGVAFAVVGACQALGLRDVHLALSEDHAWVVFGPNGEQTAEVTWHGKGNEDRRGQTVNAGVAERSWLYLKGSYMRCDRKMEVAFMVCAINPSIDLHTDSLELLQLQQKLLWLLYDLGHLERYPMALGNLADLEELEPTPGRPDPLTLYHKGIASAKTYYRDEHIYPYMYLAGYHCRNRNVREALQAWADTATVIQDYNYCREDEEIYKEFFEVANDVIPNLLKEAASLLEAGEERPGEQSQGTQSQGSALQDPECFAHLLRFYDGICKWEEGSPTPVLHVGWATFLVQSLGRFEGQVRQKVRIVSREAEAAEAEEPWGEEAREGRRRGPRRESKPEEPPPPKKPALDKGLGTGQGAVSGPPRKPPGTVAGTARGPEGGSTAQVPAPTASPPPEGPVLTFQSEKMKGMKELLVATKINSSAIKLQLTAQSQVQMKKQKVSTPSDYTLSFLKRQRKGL

Regarding `COC[C@@H]1C[C@]2(CC[C@@H](CN3CCC4(CC3)CN(c3ncnnc3Oc3ccc(F)cc3C(=O)N(C(C)C)C(C)C)C4)CC2)NC1=O` [Example 38-2], in data set [1], the half-maximal inhibitory concentration (IC50) stood at 2.8 nM. Further, the concentration for 50% growth inhibition (GI50) stood at 13.1 nM in the data set with MV4-11 and 23.3 nM in the data set on MOLM-13. In addition, the half-life at 1 μM in data set [2] turned out to be 1.08 h; in data set [3], 1.04 h; in data set [4], 1.64 h.

In the case of `CCN(C(=O)c1cc(F)ccc1Oc1cncnc1N1CC2(CCN(C[C@H]3CC[C@]4(CC3)CC(COC)(COC)C(=O)N4)CC2)C1)C(C)C` [Example 17], the IC50 in data set [1] came out at 5 nM. The GI50 in the data set with MV4-11 came to 13.8 nM; with MOLM-13, 7.9 nM. In addition, the half-life at 1 μM was above 2 h in data set [2], 0.522 h in data set [3] and above 2 h in data set [4].

Regarding `COC[C@H]1C[C@]2(CC[C@@H](CN3CCC4(CC3)CN(c3ncnnc3Oc3ccc(F)cc3C(=O)N(C(C)C)C(C)C)C4)CC2)NC1=O` [Example 38-1], the concentration for half-maximal inhibition (IC50) in data set [1] worked out at 16.3 nM. Further, the GI50 is 53.8 nM in the data set with MV4-11 and 194 nM with MOLM-13. The half-life at 1 μM is above 2 h in data set [2], 1.47 h in data set [3] and above 2 h in data set [4].

Take `CC(C)N(C(=O)c1cc(F)ccc1Oc1nncnc1N1CC2(CCN(CC3CC4CCC3CC43CCC(=O)N3)CC2)C1)C(C)C` (single isomer, unassigned) [Example 15-1a]: the half-maximal inhibitory concentration (IC50) in data set [1] amounted to 34.7 nM. The values for the GI50 with MV4-11 and in the data set with MOLM-13 were 56.6 nM and 154 nM, respectively. Further, the figures for the half-life at 1 μM in data set [2], in data set [3] and in data set [4] were 1.52 h, 0.614 h and above 2 h, respectively.

On to `COCC1(COC)C[C@]2(CC[C@@H](CN3CCC4(CC3)CN(c3ncnnc3Oc3ccc(F)cc3C(=O)N(C(C)C)C(C)C)C4)CC2)NC1=O` [Example 20], for which the 50% inhibitory concentration (IC50) in data set [1] came out at 6 nM. Further, the GI50 with MV4-11 was 14.2 nM; in the data set on MOLM-13, 36.1 nM. The half-life at 1 μM is 1.85 h in data set [2], 1.25 h in data set [3] and above 2 h in data set [4].
